# Results reported in patent US10308667B2, “Oxadiazolopyridine derivatives for use as ghrelin O-acyl transferase (GOAT) inhibitors” (Boehringer Ingelheim International GmbH, priority 2016, dated 2019).
# pIC50: −log10 of the molar value.
# Biological target: human GOAT (Homo sapiens (Human), UniProt Q96T53)
# Test: Determination of hGOAT Activity in HEK293 Cells after Incubation with Test Compound
# Type: cell-based
# Details: HEK293 cells stably transfected with preproghrelin and human GOAT; octanoate-BSA 100 μM; acyl-ghrelin in medium by ELISA after 5 hours
# Method: Determination of hGOAT Activity in HEK293 Cells after Incubation with Test Compound
# HEK293 cells stably transfected with two expression vectors, one coding for preproghrelin cDNA and a second for the expression of human GOATcDNA are used as a cellular model. After feeding the cells with octanoic acid for 5 hours, acyl-ghrelin is measured in cell culture medium by an ELISA procedure.
# Cellline: Hek293 hGOAT/PPGhrl Clone #1B8Sodium octanoate, Sigma, Cat.-No. C5038
# BD Poly-D-Lysin 384-well Plates, black-clear polystyrene BD Bioscience Cat.-No. […] ELISA human acylated Ghrelin Kit purchased from Bertin Pharman (detailed composition of buffers e.g. wash-puffer, ELISA buffer not known)
# Cells are plated with a density of 5000 cells/well in 384-well poly-D-lysin plates and incubated for 1 day at 37° C., 5% CO2 in DMEM medium, 10% FCS, 1×NEAA, Puromycin (0.5 μg/ml) and G418 (1 mg/ml). Then the medium is changed to a identical medium without FCS and containing Octanoate-BSA (final concentration 100 μM each) and compound in DMSO (final DMSO concentration 0.3%). After incubation for 5 hours acylghrelin in the medium is measured by ELISA
# The medium sample is diluted 1:25 in Elisa buffer, A 25 ul aliquot is transferred to a 384-well ELISA plate previously washed 4 times with 100 μL wash buffer, and 25 μl tracer-solution is added. After incubation overnight (˜20 h) at 4° C. temperature the plate is washed 4 times with 100 μl wash-buffer per well. Finally 50 μl Ellman's reagent is added to each well and the plate is incubated in the dark for 20 minutes. The absorbance is measured at 405 nm in an Envision multilabel reader and the amount of acylated ghrelin is calculated according to a acylated ghrelin standard curve provided in the same plate.
# The analysis of the data is performed by calculation of the percentage of acyl-ghrelin produced in the presence of test compound compared to the amount of acyl-ghrelin produced in the vehicle control samples. An inhibitor of the GOAT enzyme will give values between 100% CTL (no inhibition) and 0% CTL (complete inhibition). IC50 values are calculated with Assay Explorer or other suited software based on curve fitting of results of 8 different compound concentrations.
# Sequence of human GOAT (Q96T53 whole entry): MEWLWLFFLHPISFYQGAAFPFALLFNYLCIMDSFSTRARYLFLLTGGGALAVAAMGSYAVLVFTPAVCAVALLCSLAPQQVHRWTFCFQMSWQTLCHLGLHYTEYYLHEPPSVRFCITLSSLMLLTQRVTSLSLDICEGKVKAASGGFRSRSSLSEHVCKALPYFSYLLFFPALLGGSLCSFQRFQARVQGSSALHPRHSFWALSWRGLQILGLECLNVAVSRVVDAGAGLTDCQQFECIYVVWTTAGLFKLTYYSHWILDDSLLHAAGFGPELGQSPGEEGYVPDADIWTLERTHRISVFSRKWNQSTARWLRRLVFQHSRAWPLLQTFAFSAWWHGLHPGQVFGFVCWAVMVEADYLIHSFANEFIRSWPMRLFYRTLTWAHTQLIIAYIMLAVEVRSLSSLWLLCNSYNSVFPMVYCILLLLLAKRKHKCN
row,SMILES,pIC50
1,"Cc1nc2nonc2c(N)c1Cc1cc(C#N)c(C#N)cn1 [Example 76, 6-(7-amino-5-methyl-[1,2,5]oxadiazolo[3,4-b]pyridin-6-ylmethyl)pyridine-3,4-dicarbonitrile]",7.85
2,"Cc1nc2nonc2c(N)c1Cc1ncc(C#N)c(C(F)F)n1 [Example 79, 2-(7-amino-5-methyl-[1,2,5]oxadiazolo[3,4-b]pyridin-6-ylmethyl)-4-(difluoromethyl)pyrimidine-5-carbonitrile]",9.23
3,"Cc1nc2nonc2c(N)c1Cc1cccc(Cl)n1 [Example 3, 6-(6-Chloro-pyridin-2-ylmethyl)-5-methyl-[1,2,5]oxadiazolo[3,4-b]pyridin-7-ylamine]",9.34
4,"Cc1nc2nonc2c(N)c1Cc1ccc(-c2cncs2)c(N)n1 [Example 67, 6-(6-Amino-5-thiazol-5-yl-pyridin-2-ylmethyl)-5-methyl-[1,2,5]oxadiazolo[3,4-b]pyridin-7-ylamine]",10.30
5,"Cc1nc2nonc2c(N)c1Cc1ncc(C(F)(F)F)c(C#N)n1 [Example 75, 2-(7-amino-5-methyl-[1,2,5]oxadiazolo[3,4-b]pyridin-6-ylmethyl)-5-(trifluoromethyl)pyrimidine-4-carbonitrile]",8.57
6,"Cc1nc2nonc2c(N)c1Cc1ccc(C2CC2)cn1 [Example 39, 6-[(5-cyclopropylpyridin-2-yl)methyl]-5-methyl-[1,2,5]oxadiazolo[3,4-b]pyridin-7-amine]",9.74
7,"Cc1nc2nonc2c(N)c1Cc1ccc(Br)cn1 [Example 5, 6-(5-Bromo-pyridin-2-ylmethyl)-5-methyl-[1,2,5]oxadiazolo[3,4-b]pyridin-7-ylamine]",9.62
8,"Cc1nc2nonc2c(N)c1Cc1ncc(C#N)cn1 [Example 77, 2-(7-amino-5-methyl-[1,2,5]oxadiazolo[3,4-b]pyridin-6-ylmethyl)pyrimidine-5-carbonitrile]",8.42
9,"Cc1nc2nonc2c(N)c1Cc1cccc(-c2c(C)noc2C)n1 [Example 60, 6-[6-(3,5-Dimethyl-isoxazol-4-yl)-pyridin-2-ylmethyl]-5-methyl-[1,2,5]oxadiazolo[3,4-b]pyridin-7-ylamine]",9.32

# Next, values leading:
row,pIC50,SMILES
1,10.00,"Cc1nc2nonc2c(N)c1Cc1ccc(Br)c(NCC(C)(C)C#N)n1 [Example 127, 3-[6-(7-Amino-5-methyl-[1,2,5]oxadiazolo[3,4-b]pyridin-6-ylmethyl)-3-bromo-pyridin-2-ylamino]-2,2-di methyl-propionitrile]"
2,10.26,"Cc1nc2nonc2c(N)c1Cc1ccc(C#N)c(NCCC(F)F)n1 [Example 144, 6-(7-Amino-5-methyl-[1,2,5]oxadiazolo[3,4-b]pyridin-6-ylmethyl)-2-(3,3-difluoro-propylamino)-nicotinonitrile]"
3,8.64,"Cc1nc2nonc2c(N)c1Cc1ccc(N2CCC(F)(F)C2)c(C#N)n1 [Example 150, 6-(7-Amino-5-methyl-[1,2,5]oxadiazolo[3,4-b]pyridin-6-ylmethyl)-3-(3,3-difluoro-pyrrolidin-1-yl)-pyridine-2-carbonitrile]"
4,9.37,"Cc1nc2nonc2c(N)c1Cc1ccc(C(F)(F)F)c(C(N)=O)n1 [Example 89, 6-(7-Amino-5-methyl-[1,2,5]oxadiazolo[3,4-b]pyridin-6-ylmethyl)-3-trifluoromethyl-pyridine-2-carboxylic Acid Amide]"
5,10.57,"Cc1nc2nonc2c(N)c1Cc1ccc(C#N)c(NCCCF)n1 [Example 149, 6-(7-Amino-5-methyl-[1,2,5]oxadiazolo[3,4-b]pyridin-6-ylmethyl)-2-(3-fluoro-propylamino)-nicotinonitrile]"
6,10.27,"Cc1nc2nonc2c(N)c1Cc1ccc(C#N)c(N2CC3(COC3)C2)n1 [Example 137, 6-(7-Amino-5-methyl-[1,2,5]oxadiazolo[3,4-b]pyridin-6-ylmethyl)-2-(2-oxa-6-aza-spiro[3.3]hept-6-yl)-nicotinonitrile]"
7,10.11,"Cc1nc2nonc2c(N)c1Cc1ncc(Br)c(C(F)(F)F)n1 [Example 83, 6-[5-bromo-4-(trifluoromethyl)pyrimidin-2-yl]methyl-5-methyl-[1,2,5]oxadiazolo[3,4-b]pyridin-7-amine]"
